Broadly, the pIC50 is the IC50 on a negative log10 scale, so that one unit is a factor of ten.

Each structure is given as a SMILES string. pIC50: −log10 of the molar value.

One molecule from patent US20250262188A1, “Methods of Increasing the Plasma Drug Exposure of Anticancer Agents” (Scandion Oncology A/S, priority 2021, published 2025) can be followed below.

The target of data set [1] is T1, UGT1A1 (Homo sapiens, UniProt P22309).
T1 sequence (P22309 26-533): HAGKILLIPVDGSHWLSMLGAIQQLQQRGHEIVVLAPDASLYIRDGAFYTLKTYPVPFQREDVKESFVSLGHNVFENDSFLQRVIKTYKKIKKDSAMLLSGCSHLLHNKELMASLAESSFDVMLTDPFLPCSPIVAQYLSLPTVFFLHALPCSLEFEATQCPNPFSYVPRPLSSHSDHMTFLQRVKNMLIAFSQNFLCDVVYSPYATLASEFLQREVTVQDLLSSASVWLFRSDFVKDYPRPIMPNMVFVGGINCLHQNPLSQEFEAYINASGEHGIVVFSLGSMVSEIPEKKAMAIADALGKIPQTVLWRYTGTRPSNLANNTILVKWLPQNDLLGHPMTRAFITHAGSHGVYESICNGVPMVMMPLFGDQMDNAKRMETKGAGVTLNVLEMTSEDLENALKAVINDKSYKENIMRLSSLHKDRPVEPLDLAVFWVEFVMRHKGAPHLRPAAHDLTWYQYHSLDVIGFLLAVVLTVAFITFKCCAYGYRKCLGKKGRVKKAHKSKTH
Description: In vitro UGT1A1 inhibition, recombinant human enzyme assays (Example 5). The class given is biochemical. The text has this:
The term “UGT1A1 inhibitor” as used herein refers to a molecule which is capable of binding to human uridine diphosphate (UDP)-glycuronosyl transferase (UGT1A1), particularly in humans or animals and decrease the enzymatic activity of the UGT1A1. […] Whether or not a particular molecule is an UGT1A1 inhibitor can be determined by examining the molecule's IC50 in vitro in a UGT1A1 inhibition assays known in the art.
The inhibition of UGT1A1 was investigated by recombinant human enzyme assays.

Data set [2] is described as follows: Plasma concentrations of SCO-101 and SN-38 in patients upon repeated administration of SCO-101 (Example 1). It counts as in vivo, human. Conditions: 150 mg SCO-101 repeated every 24 hours, FIG. 1D. On the procedure: On days 1, 2, 3, 4, 5 and 6 in each treatment cycle, patients received one fixed daily dose of 150 mg SCO-101 taken in the morning at least 30 minutes before ingestion of food. On day 5 to 7, patients received FOLFIRI as specified for Colorectal cancer combination regimen 2. Blood samples were taken from patients at predefined timepoints according to the study protocol. During the first cycle of treatment, blood samples for pharmacokinetic analysis of SCO-101, irinotecan, and SN-38 were taken as follows: • Day 1; (pre-SCO-101 administration, 1; 4; 5; 6; 8); only for PK analysis of SCO-101 • Day 2; […] (pre-SCO-101 administration, 1; 4; 5; 6; 8) • Day 6; […] (48 hours), • Day 9; (96 hours). Blood samples were collected in 4 mL blood-collection tubes using lithium heparin as the anti-coagulant. Blood samples were centrifuged, and the resulting plasma is withdrawn and stored at −70° C. until analysis. […] The method and system, including validation were according to industry standard. Data were analysed using commercially available software such as Win-Non-Lin (available from Certara inc.) SCO-101 and Irinotecan was administered as described in the materials and methods section. Blood samples were withdrawn and analysed as specified. […] Raw data was then plotted using win-non-lin software to obtain relevant pharmacokinetic parameters, e.g. Cmax and AUC. […]

Data set [3] deals with T2, ABCG2 (Homo sapiens, UniProt Q9UNQ0).
T2 construct: endogenous in cells; host or cells: HT29 and LoVo, parental and SN38-resistant
T2 sequence (Q9UNQ0 1-655): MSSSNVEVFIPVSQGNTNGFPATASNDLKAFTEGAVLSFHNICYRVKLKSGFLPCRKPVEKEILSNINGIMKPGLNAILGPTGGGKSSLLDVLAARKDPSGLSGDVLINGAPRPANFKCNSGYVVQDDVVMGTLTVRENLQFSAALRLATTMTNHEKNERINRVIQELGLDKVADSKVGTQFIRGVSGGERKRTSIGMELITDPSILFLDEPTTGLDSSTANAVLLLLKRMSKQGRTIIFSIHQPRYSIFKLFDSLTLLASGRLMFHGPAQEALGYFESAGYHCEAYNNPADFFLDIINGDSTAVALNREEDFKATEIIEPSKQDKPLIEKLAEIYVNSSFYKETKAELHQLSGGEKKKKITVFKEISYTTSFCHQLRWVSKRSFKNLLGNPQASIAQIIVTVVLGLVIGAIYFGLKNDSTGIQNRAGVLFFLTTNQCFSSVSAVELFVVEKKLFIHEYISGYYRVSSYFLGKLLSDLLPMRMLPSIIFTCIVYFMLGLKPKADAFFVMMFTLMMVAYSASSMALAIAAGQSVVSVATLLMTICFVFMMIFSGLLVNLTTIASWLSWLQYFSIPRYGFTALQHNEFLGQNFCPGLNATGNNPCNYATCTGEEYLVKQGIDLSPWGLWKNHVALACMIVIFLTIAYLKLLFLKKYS
Description: Flux assays (dye-flux, bi-directional flux, 3H-SN38 accumulation, vesicular uptake) in colon cancer cells (Example 4). The class given is cell-based. The note with it: parental and SN38-resistant HT29 and LoVo cells. The source says: (§1) Pairs of parental (sensitive) and SN38-resistant human colon cancer cell lines (HT29 and LoVo) were used. ABCG2 overexpression and effects of SCO-101 on ABCG2 was investigated by western blot, qPCR, dye-flux assays, bi-directional flux assays, 3H-SN38 accumulation assays and vesicular uptake assays. The effect of SCO-101 on SN38 re-sensitization was investigated by cell viability assays (MTT/PrestoBlue) and clonogenic assays.

Data set [4] concerns the target T2, ABCG2. Description: Protein analysis of ABCG2 (western blot) in colon cancer cells (Example 4). The class given is cell-based.
Excerpt: as §1
In general terms: A western blot detects proteins with antibodies after separation by electrophoresis.

Data set [5] has as its system SN38-resistant human colon cancer cell lines (HT29 and LoVo). Kind of data set: Cell viability (MTT/PrestoBlue) and clonogenic assays (Example 4). The class given is cell-based. Conditions: SN-38-resistant cells exposed to SCO-101 and SN-38.
Excerpt: as §1

In the case of `O=C(Nc1cc(C(F)(F)F)cc(C(F)(F)F)c1)Nc1ccc(Br)cc1-c1nnn[nH]1` [SCO-101], the pIC50 in data set [1] (read-out: IC50 towards UGT1A1) is around 7.00. In data set [1] (recombinant human enzyme), the “UGT1A1 inhibition (in words)” value is on record as “potent inhibitor of UGT1A1”. Besides, the “SCO-101 plasma level at which levels stabilize over time” value in data set [2] (modelled from patient data) is “around 55 μg/mL”. The half-life in data set [2] (human, plasma, oral, read-out: SCO-101 half-life after stopping the administration (converted)) is around 24 h. In data set [3], the “Effect on the activity of ABCG2 in flux assays” value is reported as “inhibited the activity of ABCG2”. Further, the “Effect on ABCG2 protein” value in data set [4] is listed as “causes degradation of ABCG2”. Besides, the “Effect on cell viability and colony formation of the combination with SN-38 compared to either drug alone” value in data set [5] is recorded as “synergistic inhibitory effect”.
